Laboratory results published in US20110212169A1, “METHOD FOR PRODUCING POWDER CONTAINING NANOPARTICULATED SPARINGLY SOLUBLE DRUG, POWDER PRODUCED THEREBY AND PHARMACEUTICAL COMPOSITION CONTAINING SAME (As Amended)” (Amorepacific Corporation, priority 2008, published 2011).
Blank lines part the entries; values can stand above or below the compound they belong to.

Experiment: Particle size of drug after redispersion in distilled water (laser scattering particle size analyzer)
Assay type: physicochemical
Protocol: Each powder (0.01 g) was redispersed in distilled water (5 mL) and particle size was measured. Electron microscopic images of the powders when the concentration of the carageenan solution was 0.1 wt % and 2 wt % are shown in FIGS. 2a and 2b, respectively. The redispersion was conducted by lightly shaking the mixture with a hand. The particle size was measured under aqueous condition using a laser scattering particle size analyzer (LA 910, Horiba, Japan) (Mie & Fraunhofer, relative refraction index=1). The resolving power of the ultrasonic disperser used for the particle size measurement was 40 W (39 kHz), and the speed of stirring and circulation was 340 mL/min. The particle size measurement was made after performing ultrasonic dispersion for 1 minute.

Average particle size (1 wt % carageenan, hot air drying at 40 °C, redispersed in distilled water): 0.39 (±1.01) μm | Average particle size (1 wt % carageenan, hot air drying at 60 °C, redispersed in distilled water): 0.36 (±0.29) μm | drug particle size (alginic acid 1 wt %, vacuum drying at room temperature, redispersed in distilled water): 0.31 (±0.41) | drug particle size (alginic acid 2 wt %, vacuum drying at room temperature, redispersed in distilled water): 0.19 (±0.05) | Average particle size (carageenan 0.1 wt %, freeze dried powder redispersed in distilled water): 0.91 (±2.00) μm | Average particle size (carageenan 0.5 wt %, freeze dried powder redispersed in distilled water): 0.31 (±0.10) μm | Average particle size (carageenan 0.5 wt %, vacuum drying at room temperature, redispersed in distilled water): 0.36 (±0.71) μm | Average particle size (carageenan 1 wt %, freeze dried powder redispersed in distilled water): 0.28 (±0.08) μm | Average particle size (carageenan 1 wt %, vacuum drying at room temperature, redispersed in distilled water): 0.26 (±0.06) μm | Average particle size (carageenan 2 wt %, freeze dried powder redispersed in distilled water): 0.23 (±0.06) μm | Average particle size (carageenan 2 wt %, vacuum drying at room temperature, redispersed in distilled water): 0.21 (±0.06) μm | Average particle size (carageenan 3 wt %, freeze dried powder redispersed in distilled water): 0.26 (±0.07) μm | Average particle size (carageenan 3 wt %, vacuum drying at room temperature, redispersed in distilled water): 0.23 (±0.06) μm | Average particle size (carageenan 5 wt %, freeze dried powder redispersed in distilled water): 0.12 (±0.05) μm | drug particle size (gelatin 1 wt %, freeze drying, redispersed in distilled water): 0.45 (±0.89) | drug particle size (gelatin 2 wt %, freeze drying, redispersed in distilled water): 0.16 (±0.08) | drug particle size (gelatin 3 wt %, freeze drying, redispersed in distilled water): 0.13 (±0.06) | drug particle size (gelatin 3 wt %, vacuum drying at room temperature, redispersed in distilled water): 0.36 (±0.10) | drug particle size (gelatin 5 wt %, freeze drying, redispersed in distilled water): 0.16 (±0.05) | Average particle size (naproxen concentration 16 wt %, carageenan 0.5 wt %, freeze dried, redispersed in distilled water): 0.56 (±1.20) μm | Average particle size (naproxen concentration 16 wt %, carageenan 1 wt %, freeze dried, redispersed in distilled water): 0.22 (±0.07) μm | average particle size of the naproxen particles (slurry mixture after wet grinding (before drying) redispersed in distilled water): 0.10 μm
SMILES: COc1ccc2cc([C@H](C)C(=O)O)ccc2c1 [naproxen]

Average particle size (carageenan 5 wt %, freeze dried powder redispersed in distilled water, different drugs): 0.16 (±0.09) μm
SMILES: C=CC[C@@H]1/C=C(\C)C[C@H](C)C[C@H](OC)[C@H]2O[C@@](O)(C(=O)C(=O)N3CCCC[C@H]3C(=O)O[C@H](/C(C)=C/[C@@H]3CC[C@@H](O)[C@H](OC)C3)[C@H](C)[C@@H](O)CC1=O)[C@H](C)C[C@@H]2OC [Tacrolimus, tacrolimus]
